# Measurements reported in US20250073346A1, “PHARMACEUTICAL COMBINATIONS” (Oxford Bio Therapeutics Ltd, priority 2021, published 2025).
# Experiments:
# HT-29 cells = assay: Platin after 72 hr LY75_A1 pre-treatment, cell viability (cell-titer glo); assay type: cell-based
# Protocol: (§1) Cells were diluted in excess media and spun down. […] The plate was Incubated for 24 hr at 37° C. to allow cells to adhere and become acclimatized prior to addition of drug. The plates were incubated for 72 hr at 37° C. After 72 hr, the media was removed and replaced with either cisplatin or oxaliplatin at various concentrations (see figures) in 100 ul media before incubation for a further 48 hr.
# (§2) After the incubation period, the plate was removed from the incubator and left at room temperature for 30 minutes. Media was removed from the plate which was washed twice with 200 ul PBS. The plate was then treated with cell-titer glo (CTG) following the manufacturer's protocol (Promega, Catalog No. G9681). Briefly, 200 ul CTG solution/well was added before incubating at RT on a plate rotator at low speed for 2 min before incubation in the dark for a further 10 min.
# (§3) The plates were removed and the viability under the various conditions calculated.
# HPAFII cells = assay: as above; assay type: cell-based; settings: for viability of cells: HPAFII, ~50 uM oxaliplatin
# Protocol: as §1, §2, §3
# N87 cells = assay: as above; assay type: cell-based; settings: for reduction of IC50 in cells pre-treated with LY75_A1: pre-treated with LY75_A1 for 72 hours
# Protocol: as §1, §2, §3
# [1] = tested on: NCI-N87 gastric cancer xenograft; assay: Subcutaneous NCI-N87 gastric cancer xenograft model; assay type: in vivo, mouse
# Protocol: The animals were fed ad libitum water (reverse osmosis, 1 ppm CI) and NIH 31 Modified and Irradiated Lab Diet® consisting standard rodent chow. The mice were housed on Crushed corncob bedding, autoclaved; changed weekly on a 12-hour light cycle at 20-22° C. (68-72° F.) and 40-60% humidity.
# The NCI-N87 tumor cells were maintained in vitro with RMPI 1640 medium supplemented with 10% fetal bovine serum at 37° C. in an atmosphere of 5% CO2 in air. The cells in exponential growth phase were harvested and quantitated by cell counter before tumor inoculation.
# Each mouse was inoculated subcutaneously in the right upper flank region with NCI-N87 tumor cells (1×10^7) in PBS mixed with matrigel (1:1) for tumor development. After tumor inoculation, the animals were checked daily for morbidity and mortality. During routine monitoring, the animals were checked for any effects of tumor growth and treatments on behavior such as mobility, food and water consumption, body weight gain/loss (Body weights would be measured two times per week after randomization), eye/hair matting and any other abnormalities. Mortality and observed clinical signs were recorded for individual animals in detail.
# Tumor volumes were measured two times per week after randomization in two dimensions using a caliper, and the volume was expressed in mm3 using the formula: V=(L×W×W)/2, where V is tumor volume, L is tumor length (the longest tumor dimension) and W is tumor width (the longest tumor dimension perpendicular to L). Dosing as well as tumor and body weight measurements were conducted in a Laminar Flow Cabinet.
# The randomization started when the mean tumor size reached approximately 183 mm3. […]
# Each animal was euthanized for tumor progression (TP) when its tumor reached the […] endpoint. The time to endpoint (TTE) for each mouse was calculated with the following equation: TTE=log (endpoint volume)−b/m. […] Any animal determined to have died from treatment-related (TR) causes was to be assigned a TTE value equal to the day of death. […]
# Treatment outcome was evaluated from tumor growth delay (TGD), which was defined as the increase in the median TTE for a treatment group compared to the control group: TGD=T−C expressed in days or as a percentage of the median TTE for the control group % TGD=T−C/C×100 where, T=median TTE for a treatment group, C=median TTE for the control group.
# Animals were weighed daily on Days 1-5, and then twice weekly until the end of the study. Group mean BW nadirs were determined before more than 50% of the animals in a group exited the study. The mice were observed frequently for health and overt signs of any adverse TR side effects, and clinical observations were recorded, if observed. […]
# [2] = target: T1, LY75 (DEC-205), lymphocyte antigen 75 (human, UniProt O60449 28-1722); assay: immunohistochemistry on FFPE human tumour tissue sections
# T1 construct: Endogenous LY75 in human tumour tissue sections and on human tumour cell lines
# T1 sequence (O60449 28-1722 limits assumed): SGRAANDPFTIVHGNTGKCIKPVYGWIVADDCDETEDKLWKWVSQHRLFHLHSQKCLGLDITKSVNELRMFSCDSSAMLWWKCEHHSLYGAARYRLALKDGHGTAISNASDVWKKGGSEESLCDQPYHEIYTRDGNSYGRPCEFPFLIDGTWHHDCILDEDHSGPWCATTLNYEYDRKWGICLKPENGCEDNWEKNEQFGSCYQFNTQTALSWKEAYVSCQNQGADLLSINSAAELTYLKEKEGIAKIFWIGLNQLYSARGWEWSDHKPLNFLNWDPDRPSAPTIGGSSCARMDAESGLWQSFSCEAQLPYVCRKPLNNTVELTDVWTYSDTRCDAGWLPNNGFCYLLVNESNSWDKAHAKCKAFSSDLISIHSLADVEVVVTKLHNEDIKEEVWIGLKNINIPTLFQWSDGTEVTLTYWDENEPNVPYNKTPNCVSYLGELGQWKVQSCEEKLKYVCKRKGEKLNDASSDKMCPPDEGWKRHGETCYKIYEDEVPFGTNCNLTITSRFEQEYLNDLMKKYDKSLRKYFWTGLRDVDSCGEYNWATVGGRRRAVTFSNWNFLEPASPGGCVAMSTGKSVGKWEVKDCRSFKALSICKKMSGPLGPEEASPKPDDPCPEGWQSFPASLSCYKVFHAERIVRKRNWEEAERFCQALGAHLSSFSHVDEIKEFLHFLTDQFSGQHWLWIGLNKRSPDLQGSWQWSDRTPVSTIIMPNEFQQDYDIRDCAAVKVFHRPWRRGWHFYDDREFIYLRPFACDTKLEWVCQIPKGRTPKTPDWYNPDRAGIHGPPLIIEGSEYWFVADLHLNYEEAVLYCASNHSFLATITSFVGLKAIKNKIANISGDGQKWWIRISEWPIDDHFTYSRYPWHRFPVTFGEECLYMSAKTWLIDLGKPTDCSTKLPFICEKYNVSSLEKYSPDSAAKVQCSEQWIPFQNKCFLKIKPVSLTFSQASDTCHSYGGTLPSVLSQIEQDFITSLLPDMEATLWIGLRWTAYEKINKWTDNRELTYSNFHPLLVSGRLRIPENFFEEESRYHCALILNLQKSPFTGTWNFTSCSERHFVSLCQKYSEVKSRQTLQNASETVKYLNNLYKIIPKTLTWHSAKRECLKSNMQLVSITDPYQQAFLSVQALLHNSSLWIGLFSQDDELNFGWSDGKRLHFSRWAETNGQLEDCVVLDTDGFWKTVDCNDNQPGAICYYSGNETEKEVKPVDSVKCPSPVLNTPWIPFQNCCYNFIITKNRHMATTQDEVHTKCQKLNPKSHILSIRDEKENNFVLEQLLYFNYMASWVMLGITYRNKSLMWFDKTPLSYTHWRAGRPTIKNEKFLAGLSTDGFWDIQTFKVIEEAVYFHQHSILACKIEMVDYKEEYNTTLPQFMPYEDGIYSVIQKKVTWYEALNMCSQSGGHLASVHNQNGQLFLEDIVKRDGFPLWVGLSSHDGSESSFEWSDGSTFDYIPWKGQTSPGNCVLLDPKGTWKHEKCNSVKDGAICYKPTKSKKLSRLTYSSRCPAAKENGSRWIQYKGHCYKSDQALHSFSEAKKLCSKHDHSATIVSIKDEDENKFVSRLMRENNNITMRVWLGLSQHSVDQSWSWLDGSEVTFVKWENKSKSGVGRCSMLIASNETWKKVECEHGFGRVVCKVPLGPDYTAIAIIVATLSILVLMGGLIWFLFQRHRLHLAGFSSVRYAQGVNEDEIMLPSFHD
# Protocol: (§4) Using the human monoclonal antibodies specific to LY75, immunohistochemistry was performed on FFPE HT-29 and A549 cell pellets, FFPE non-Hodgkin's lymphoma and pancreatic cancer arrays, and fresh frozen lymphoma/leukaemia tumours, ovarian cancer, pancreatic cancer, and breast cancer sections and a normal tissue array.
# (§5) The LY75 antigen was retrieved using microwave heat, high power until boiling then low power for 10 minutes in 50 mL 1×citrate buffer in a Coplin jar. Slides were then left to cool to room temperature for a further 15 min, then washed in tap water, 3 minutes. Circles were drawn around each tissue section/TMA with a hydrophobic barrier pen and slides were then washed 3 times in PBS, 3 minutes each wash.
# Meanwhile, endogenous tissue peroxidase activity was blocked by incubating tissues with peroxidase suppressor for 5-10 minutes at RT in a humidified chamber. Slides were then washed in PBS 3×3 minutes each wash. Tissues were incubated in SFPB for 30 minutes at room temperature in a humidified chamber. Final staining complexes were applied to each tissue section and/or microarray, and the slides were incubated for 30 min at room temperature in a humidified chamber. Slides were then washed once in PBS and once in PBST (PBS+0.125% Tween-20), 3 minutes each wash. […]
# LY75 = target: T2, LY75 (Homo sapiens, UniProt O60449); assay: Immunohistochemistry with anti-LY75 antibody on FFPE Triple Negative breast cancer samples
# T2 construct: tissue US Biomax Inc. or Origene; host or cells: FFPE triple negative breast cancer tissue sections/arrays
# T2 sequence (O60449 28-1722): as the sequence (O60449 28-1722 limits assumed) above
# Protocol: as §4
# FFPE slides were deparaffinised in xylene (2×3 minutes) then rehydrated through 1:1 xylene: 100% ethanol (1×3 minutes), 100% ethanol (2×3 minutes), 95% ethanol (1×3 minutes), 70% ethanol (1×3 minutes), 50% ethanol (1×3 minutes), and tap water (1×3 minutes).
# as §5
# The primary anti-LY75 antibody was diluted in serum free protein block (SFPB) to obtain a solution with a concentration 20-fold greater than the final desired concentration (20 μg/mL for 1 μg/mL final). The secondary antibody, goat anti-human immunoglobulin G (IgG) antigen-binding fragment (Fab), was prepared similarly in SFPB to create a solution of equal concentration. […]
# [3] = HT29 cells pretreated with 0.5 nM LY75_A1 for 72 hours
# [4] = HT29 cells pretreated with 2 nM LY75_A1 for 72 hours
# [5] = N87 cells pretreated with 1 nM LY75_A1 for 72 hours
# [6] = N87 cells pretreated with 10 nM LY75_A1 for 72 hours
# [7] = single agent, single i.v. dose day 1 (OBT076 1 mg/kg; Oxaliplatin 5 mg/kg)
molecule,measurement,setting,value
O=C1[O][Pt]2([NH][C@@H]3CCCC[C@H]3[NH]2)[O]C1=O [Oxaliplatin],IC50,HT-29 cells; [3],55.1 µM
same,IC50,HT-29 cells; [4],32.7 µM
same,IC50,"HT-29 cells; HT29 cells, oxaliplatin alone, 48 hr",66.8 µM
same,viability of cells,"HT-29 cells; HT-29, ~10 uM oxaliplatin, not pre-treated, FIG. 5A",no cell death
same,viability of cells,"HT-29 cells; HT-29, ~10 uM oxaliplatin, pre-treated with 2 nM LY75_A1, FIG. 5A",significantly lower than those which are not pre-treated
same,IC50,HPAFII cells; HPAFII cells pretreated with 1 nM LY75_A1 for 72 hours,85.4 µM
same,IC50,HPAFII cells; HPAFII cells pretreated with 3 nM LY75_A1 for 72 hours,62.1 µM
same,IC50,HPAFII cells; HPAFII cells pretreated with 10 nM LY75_A1 for 72 hours,58.8 µM
same,IC50,"HPAFII cells; HPAFII cells, oxaliplatin alone, 48 hr",~256 µM
same,reduction of IC50 in cells pre-treated with LY75_A1,"HPAFII cells; HPAFII cells, pre-treated with LY75_A1 for 72 hours",approximately 4 fold
same,viability of cells,"HPAFII cells; not pre-treated, FIG. 5C",no cell death
same,viability of cells,"HPAFII cells; pre-treated with all concentrations (1, 3, 10 nM) of LY75_A1, FIG. 5C",significantly lower than those which are not pre-treated
same,viability of cells,"N87 cells; N87, ~10 uM oxaliplatin, not pre-treated, FIG. 5D",no cell death
same,viability of cells,"N87 cells; N87, ~10 uM oxaliplatin, pre-treated with 1 or 10 nM LY75_A1, FIG. 5D",significantly lower than those which are not pre-treated
same,IC50,N87 cells; [5],14.1 µM
same,IC50,N87 cells; [6],1 µM
same,IC50,"N87 cells; N87 cells, oxaliplatin alone, 48 hr",44.5 µM
same,reduction of IC50 in cells pre-treated with LY75_A1,N87 cells; N87 cells,44 fold
same,mice that had died,"[1]; by Day 81, single agent alone",~71%
same,TGI on day 60,[1]; [7],0.49%
same,Tumor Size (mm^3) on day 60,[1]; [7],1969.92 +/− 258.93 mm^3
same,% Survival,"[1]; to Day 81, single agent, single i.v. dose day 1 (OBT076 1 mg/kg; Oxaliplatin 5 mg/kg)",28.57%
"N.N.[Cl][Pt][Cl] [Cisplatin, cis-diamminedichloroplatinum(II)]",IC50,HT-29 cells; [3],44.6 µM
same,IC50,HT-29 cells; [4],18.7 µM
same,IC50,"HT-29 cells; HT29 cells, cisplatin alone, 48 hr",44.7 µM
same,viability of cells,"HT-29 cells; HT-29, ~10 uM cisplatin, not pre-treated, FIG. 5B",no cell death
same,viability of cells,"HT-29 cells; HT-29, ~10 uM cisplatin, pre-treated with 2 nM LY75_A1, FIG. 5B",significantly lower than those which are not pre-treated
same,viability of cells,"N87 cells; N87, ~3 uM cisplatin, not pre-treated, FIG. 5E",no cell death
same,viability of cells,"N87 cells; N87, ~3 uM cisplatin, pre-treated with 1 or 10 nM LY75_A1, FIG. 5E",significantly lower than those which are not pre-treated
same,IC50,N87 cells; [5],3.5 µM
same,IC50,N87 cells; [6],0.9 µM
same,IC50,"N87 cells; N87 cells, cisplatin alone, 48 hr",10 µM
same,reduction of IC50 in cells pre-treated with LY75_A1,N87 cells; N87 cells,10 fold
"LY75_A1 monoclonal antibody (antibody, human IgG1, kappa, V domains shown, Human antibody, detected with goat anti-human IgG Fab in the immunohistochemistry; also called anti-LY75_A1) VH: EVQLVESGGGLVKPGGSLRLSCAASGFTYSNAWMSWVRQAPGKGLEWVGRIKSKTDGGTTDYAAPVQGRFTISRDDSKNTLYLQMNSLKTEDTAVYYCTIFGVVSFDYWGQGTLVTVSS VL: DVQMTQSPSSLSASVGDRVTITCRASQSISDYLSWYQQRPGKAPNLLIYAASNLKTGVPSRFSGSGSGTDFTLTISTLQPEDFATYYCQQSYRSPWTFGQGTKVEIKR",binding result,[2],binds
same,sections exhibited robust (+++) staining,LY75,55%
same,sections showed positive staining,LY75,77%
